Test results: US12291528B2, “Crystalline imidazo[4,5-b]pyridine compound, pharmaceutical compositions, and their use in treating medical conditions” (Genzyme Corporation, priority 2021, dated 2025)
Like-named read-outs stand apart in the source and are kept apart here. Each block holds one compound with its values, some of them ahead of it.

Legend:
[1] = Dialysis dissolution in simulated intra-articular fluid; type: physicochemical; conditions: for average release rate: at the 7 day time point, PBS pH 7.4 with BSA, 37° C.; for average release rate / one-half dissolution time: listed as crystalline 3-(3-methoxy-4-(4-methoxybenzyl)oxy)benzyl)-6-(1-methyl-1H-pyrazol-, monohydrate; for one-half dissolution time: dialysis bag, BSA/sodium hyaluronate in PBS pH 7.4, 37° C., 20 RPM
Description: Dialysis dissolution of the following Test Compositions in simulated intra-articular fluid was analyzed: • Crystalline 3-(3-methoxy-4-((4-methoxybenzyl)oxy)benzyl)-6-(1-methyl-1H-pyrazol-4-yl)-3H-imidazo[4,5-b]pyridin-2-amine Monohydrate Form 3, and • Crystalline 3-(3-methoxy-4-((4-methoxybenzyl)oxy)benzyl)-6-(1-methyl-1H-pyrazol-4-yl)-3H-imidazo[4,5-b]pyridin-2-amine Monohydrate Form 1.
Procedurally, Test Composition was placed into a dialysis bag along with Medium A. The dialysis bag was then closed and placed into a closed bottle containing Medium B. Medium A and B were preheated to 37° C. before use in the experiment. The closed bottles were placed into a rotating mixer system operating at 20 RPM so as to avoid suspension sedimentation inside the dialysis bag. An aliquot of Medium B from the bottle was removed at the following time points and analyzed by high-performance liquid chromatography with UV detection to determine the amount of 3-(3-methoxy-4-((4-methoxybenzyl)oxy)benzyl)-6-(1-methyl-1H-pyrazol-4-yl)-3H-imidazo[4,5-b]pyridin-2-amine in Medium B due to dialysis dissolution of the Test Composition from Medium A through the dialysis bag to Medium B: 3 hr, 6 hr, 24 hr, 29 hr, 48 hr, 72 hr, 144 hr, 168 hr, 192 hr, 216 hr, and 240 hr. One Test Composition was analyzed at the 360 hour timepoint. Medium A was bovine serum albumin (BSA) at 40 g/L (+0.2 g/L sodium azide), sodium hyaluronate at 3 g/L in reconstituted phosphate buffer saline pH 7.4. Medium B was bovine serum albumin (BSA) at 40 g/L (+0.2 g/L sodium azide) in reconstituted phosphate buffer saline pH 7.4.

[2] = Knee joint concentration and knee/plasma ratio after intra-articular administration to rats; type: in vivo, Sprague Dawley rats; conditions: for knee concentration of compound (in words): 0.1 mg dose, 672 hours, majority of animals
Description: (§1) Male rats were administered one of the following Test Articles via intra-articular administration to the left knee joint and thereafter pharmacokinetic properties were monitored: crystalline 3-(3-methoxy-4-((4-methoxybenzyl)oxy)benzyl)-6-(1-methyl-1H-pyrazol-4-yl)-3H-imidazo[4,5-b]pyridin-2-amine monohydrate Form 3 (“Form 3 Compound”) or crystalline 3-(3-methoxy-4-((4-methoxybenzyl)oxy)benzyl)-6-(1-methyl-1H-pyrazol-4-yl)-3H-imidazo[4,5-b]pyridin-2-amine monohydrate Form 1 (“Form 1 Compound”).
(§2) Male Sprague Dawley rats were allocated into four groups, where each group contained 12 rats having a weight in the range of 250 g to 300 g and an age of 7 to 9 weeks. Test Article was administered in the form of a suspension via intra-articular injection to the left knee joint of the rats according to the experimental design set forth in Table 1 below.
(§3) Each Test Article contained the specified methoxy-4-((4-methoxybenzyl)oxy)benzyl)-6-(1-methyl-1H-pyrazol-4-yl)-3H-imidazo[4,5-b]pyridin-2-amine monohydrate compound suspended in vehicle. Vehicle was […], 4.5% sorbitol, in aqueous phosphate buffer at pH 7.4. Each Test Article in the form of a suspension contained 20 mg/mL methoxy-4-((4-methoxy-benzyl)oxy)benzyl)-6-(1-methyl-1H-pyrazol-4-yl)-3H-imidazo[4,5-b]pyridin-2-amine monohydrate in the specified crystalline form.
The left knee joint (without injuring the articular capsule) of the rats together with 5-10 mm of both tibia and femur was collected from the first 6 animals/group after sacrifice at the last blood collection time point at approximately 672 hours postdose. The harvested knee joint was weighed. The left knee joint (without injuring the articular capsule) of the rats together with 5-10 mm of both tibia and femur was collected from the second 6 animals/group after sacrifice at the last blood collection time point at approximately 1344 hours postdose. The harvested knee joint was weighed. Tissue samples were maintained on dry ice prior to storage at −60 to −80° C. The knee joint samples were pulverized, then extracted with acetonitrile/water to provide a solution that was analyzed by using liquid chromatograph-mass spectrometry to determine the amount of the compound methoxy-4-((4-methoxybenzyl)oxy)benzyl)-6-(1-methyl-1H-pyrazol-4-yl)-3H-imidazo[4,5-b]pyridin-2-amine.

[3] = Pharmacokinetic parameters in plasma after intra-articular administration to rats; type: in vivo, Sprague Dawley rats; conditions: for Tmax / AUC(0-t) / AUC0-inf / Cmax / AUC0-672 / AUC0-1344 / Ratio Result from Compound Form 3/Compound Form 1: AUC0-672 / Ratio Result from Compound Form 3/Compound Form 1: AUC0-1344 / Ratio Result from Compound Form 3/Compound Form 1: AUC0-inf / Ratio Result from Compound Form 3/Compound Form 1: Cmax: plasma; for Tmax / AUC(0-t) / AUC0-inf / Cmax / AUC0-672 / AUC0-1344: male rat; for Tmax: range printed in row below; for AUC(0-t) / AUC0-inf / Cmax / AUC0-672 / AUC0-1344: mean
Description: as §1, §2, §3
Blood samples were collected from the jugular vein of the rats via syringe and needle and transferred into tubes containing K3EDTA. Blood samples were collected from the first six animals/group at 2 minutes, 10 minutes, 1 hr, 4 hr, 12 hr, 72 hr, 336 hr, and 672 hr after administration of Test Article. Blood samples were collected from the second six animals/group at 5 minutes, 0.5 hr, 2 hr, 8 hr, 24 hr, 168 hr, 1008 hr, and 1344 hr after administration of Test Article. Following centrifugation of the blood samples, plasma was cooled using dry ice until it was subjected to analytical analysis using liquid chromatograph-mass spectrometry to determine the amount of the compound methoxy-4-((4-methoxybenzyl)oxy)benzyl)-6-(1-methyl-1H-pyrazol-4-yl)-3H-imidazo[4,5-b]pyridin-2-amine.

[4] = Comparison of stability: temperature of dehydration; type: physicochemical
Excerpt: Stability of crystalline 3-(3-methoxy-4-((4-methoxybenzyl)oxy)benzyl)-6-(1-methyl-1H-pyrazol-4-yl)-3H-imidazo[4,5-b]pyridin-2-amine monohydrate Form 3 was compared to crystalline 3-(3-methoxy-4-((4-methoxybenzyl)oxy)benzyl)-6-(1-methyl-1H-pyrazol-4-yl)-3H-imidazo[4,5-b]pyridin-2-amine monohydrate Form 1. The physical property analyzed was temperature of dehydration. Crystalline 3-(3-methoxy-4-((4-methoxybenzyl)oxy)benzyl)-6-(1-methyl-1H-pyrazol-4-yl)-3H-imidazo[4,5-b]pyridin-2-amine monohydrate Form 1 is that described in international patent application publication WO 2016/100677.

Dynamic vapor sorption = type: physicochemical; conditions: 25° C., 2 cycles of increasing and decreasing relative humidity, steps of 5% RH
Description: A dynamic vapor sorption isotherm plot of crystalline 3-(3-methoxy-4-((4-methoxybenzyl)oxy)benzyl)-6-(1-methyl-1H-pyrazol-4-yl)-3H-imidazo[4,5-b]pyridin-2-amine monohydrate Form 3 is provided in FIG. 3. The dynamic vapor sorption isotherm plot results are from the procedure where after a drying stage at 0% relative humidity, compound sample was exposed to 2 cycles of increasing and decreasing relative humidity at 25° C., with steps of 5% relative humidity, where mass of the sample was recorded throughout the experiment.

[5] = 0.1 mg/knee, 672 hr, monohydrate
[6] = 1 mg/knee, 1344 hr, monohydrate
[7] = 0.1 mg/knee intra-articular, monohydrate
[8] = 1 mg/knee intra-articular, monohydrate

average release rate [1]: 0.54 %/hr | one-half dissolution time [1]: 66 h | Mean Knee Concentration of Compound [2, 5]: 852 ng/g | Mean Knee/Plasma Concentration Ratio [2, 5]: 58800 | Mean Knee Concentration of Compound ([2]; 0.1 mg/knee, 1344 hr, monohydrate): <LLOQ | Mean Knee Concentration of Compound ([2]; 1 mg/knee, 672 hr, monohydrate): 37400 ng/g | Mean Knee/Plasma Concentration Ratio ([2]; 1 mg/knee, 672 hr, monohydrate): 22100 | Mean Knee Concentration of Compound [2, 6]: 4560 ng/g | Mean Knee/Plasma Concentration Ratio [2, 6]: 19000 | Tmax ([3]; Sprague Dawley, 0.1 mg/knee intra-articular): 4 h | AUC(0-t) ([3]; male, Sprague Dawley, rat, 0.1 mg, 0.1 mg/knee intra-articular, read-out: AUC0-672): 1350 ng·h/mL | AUC0-inf ([3]; male, Sprague Dawley, rat, 0.1 mg, 0.1 mg/knee intra-articular, read-out: AUC0-inf): 1290 ng·h/mL | AUC(0-t) ([3]; male, Sprague Dawley, rat, 0.1 mg, 0.1 mg/knee intra-articular, summary from second six animals, read-out: AUC0-1344): 1330 ng·h/mL | Cmax [3, 7]: 34.3 ng/mL | AUC0-672 [3, 8]: 10600 ng·h/mL | AUC0-inf [3, 8]: 11800 ng·h/mL | Cmax [3, 8]: 71.6 ng/mL | AUC0-1344 ([3]; 1 mg/knee intra-articular, summary from second six animals, monohydrate): 11100 ng·h/mL | dehydration behaviour ([4]; room temperature, stream of nitrogen gas): undergo dehydration at room temperature
SMILES: COc1ccc(COc2ccc(Cn3c(N)nc4cc(-c5cnn(C)c5)cnc43)cc2OC)cc1 [Form 1 Compound, 3-(3-methoxy-4-((4-methoxybenzyl)oxy)benzyl)-6-(1-methyl-1H-pyrazol-4-yl)-3H-imidazo[4,5-b]pyridin-2-amine monohydrate, reference compound]
knee concentration of compound (in words) ([2]; monohydrate): below the limit of quantification in the majority of animals

average release rate [1]: 0.35 %/hr | one-half dissolution time [1]: 112 h | dialysis dissolution rate compared to Form 1 ([1]; simulated intra-articular fluid): significantly lower | Knee concentration: Ratio of Form 3 Compound/Form 1 Compound ([2]; 0.1 mg/knee, 672 hr): 5.62 | Knee/plasma ratio: Ratio of Form 3 Compound/Form 1 Compound ([2]; 0.1 mg/knee, 672 hr): 0.733 | Mean Knee Concentration of Compound [2, 5]: 4790 ng/g | Mean Knee/Plasma Concentration Ratio [2, 5]: 43100 | Mean Knee/Plasma Concentration Ratio ([2]; 0.1 mg/knee, 1344 hr): 77400 | Knee concentration: Ratio of Form 3 Compound/Form 1 Compound ([2]; 1 mg/knee, 672 hr): 5.40 | Knee/plasma ratio: Ratio of Form 3 Compound/Form 1 Compound ([2]; 1 mg/knee, 672 hr): 2.64 | Mean Knee Concentration of Compound ([2]; 1 mg/knee, 672 hr, monohydrate): 202000 ng/g | Mean Knee/Plasma Concentration Ratio ([2]; 1 mg/knee, 672 hr, monohydrate): 58300 | Knee concentration: Ratio of Form 3 Compound/Form 1 Compound ([2]; 1 mg/knee, 1344 hr): 13.6 | Knee/plasma ratio: Ratio of Form 3 Compound/Form 1 Compound ([2]; 1 mg/knee, 1344 hr): 1.96 | Mean Knee Concentration of Compound [2, 6]: 62200 ng/g | Mean Knee/Plasma Concentration Ratio [2, 6]: 37200 | concentration at 1344 hr ([2]; male, Sprague Dawley, rat, knee joint, other: intra-articular injection to the left knee joint, 0.1 mg/knee, 1344 hr, read-out: Mean Knee Concentration of Compound): 383 ng/g | hygroscopicity (dynamic vapor sorption isotherm) (Dynamic vapor sorption): not hygroscopic | Tmax ([3]; Sprague Dawley, 1 mg/knee intra-articular): 4 h | absorption compared to Form 1 Compound ([3]; intra-articular, rat): slower and more prolonged | AUC0-inf ([3]; male, Sprague Dawley, rat, 1 mg, 1 mg/knee intra-articular, read-out: AUC0-inf): 8040 ng·h/mL | Cmax ([3]; male, Sprague Dawley, rat, 1 mg, 1 mg/knee intra-articular, read-out: Cmax): 52.1 ng/mL | AUC(0-t) ([3]; male, Sprague Dawley, rat, 1 mg, 1 mg/knee intra-articular, summary from second six animals, read-out: AUC0-1344): 7100 ng·h/mL | Ratio Result from Compound Form 3/Compound Form 1: AUC0-672 ([3]; 0.1 mg/knee): 0.508 | Ratio Result from Compound Form 3/Compound Form 1: AUC0-1344 ([3]; 0.1 mg/knee): 0.611 | Ratio Result from Compound Form 3/Compound Form 1: AUC0-inf ([3]; 0.1 mg/knee): 0.587 | Ratio Result from Compound Form 3/Compound Form 1: Cmax ([3]; 0.1 mg/knee): 0.332 | Ratio Result from Compound Form 3/Compound Form 1: AUC0-672 ([3]; 1 mg/knee): 0.494 | Ratio Result from Compound Form 3/Compound Form 1: AUC0-1344 ([3]; 1 mg/knee): 0.640 | Ratio Result from Compound Form 3/Compound Form 1: AUC0-inf ([3]; 1 mg/knee): 0.681 | Ratio Result from Compound Form 3/Compound Form 1: Cmax ([3]; 1 mg/knee): 0.728 | AUC0-672 [3, 7]: 686 ng·h/mL | AUC0-inf [3, 7]: 757 ng·h/mL | Cmax [3, 7]: 11.4 ng/mL | AUC0-1344 ([3]; 0.1 mg/knee intra-articular, summary from second six animals, monohydrate): 813 ng·h/mL | AUC0-672 [3, 8]: 5240 ng·h/mL | thermodynamic stability compared to monohydrate Form 1 [4]: thermodynamically more stable | temperature of dehydration ([4]; heated): 130 °C
SMILES: COc1ccc(COc2ccc(Cn3c(N)nc4cc(-c5cnn(C)c5)cnc43)cc2OC)cc1 [Form 3 Compound, 3-(3-methoxy-4-((4-methoxybenzyl)oxy)benzyl)-6-(1-methyl-1H-pyrazol-4-yl)-3H-imidazo[4,5-b]pyridin-2-amine monohydrate]
knee concentration of compound (in words) ([2]; monohydrate): consistently higher than the concentration
